Measured values published in paper PMC8053501 (Diabetes, Metabolic Syndrome and Obesity: Targets and …, 2021).
Entries after “also recorded” stand apart in the source; their conditions may differ. Where two headings read alike, the source gives them in different places. Each block holds one compound with its values, some of them ahead of it.

Legend:
[1] = for Drug concentration, time course: normal mice, oral gavage, 3mg/kg
[2] = in vivo; conditions: male, ICR, mouse, po
[3] = tested on: diabetes mellitus patients; assay: Acute kidney injury; type: in vivo, human; conditions: for Association with AKI, Unadjusted (95% CI) / Association with AKI, Adjusted (95% CI): metformin as reference; for Association with AKI, Adjusted (95% CI): multivariate; for Events During the 90 days (AKI): primary endpoint, first 90 days, patients above 55 years; for Total endpoint (AKI events): primary plus secondary endpoint; for Events at secondary end (AKI): secondary endpoint, after 90 days of hospital admission; for Total Percent (incidence rate of AKI at the end of the study): share of the 4966 total outcomes; for Association with AKI compared to control drug metformin, in words: multivariate analysis
[4] = 3 mg/kg, t1/2, mouse, oral gavage, Kidney
[5] = 3 mg/kg, t1/2, mouse, oral gavage, Liver
[6] = 3 mg/kg, t1/2, mouse, oral gavage, Plasma
[7] = Endpoint Diagnosis with 1047 Outcome
[8] = Secondary Diagnosis with 3919 Outcomes

- Drug concentration, time course ([1]; Kidney, 0h): 0
- Drug concentration, time course ([1]; Kidney, 3h): 16,700
- Drug concentration, time course ([1]; Kidney, 6h): 14,500
- Drug concentration, time course ([1]; Kidney, 9h): 8000
- Drug concentration, time course ([1]; Kidney, 12h): 4500
- Drug concentration, time course ([1]; Kidney, 15h): 3000
- Drug concentration, time course ([1]; Kidney, 18h): 1500
- Drug concentration, time course ([1]; Kidney, 21h): 1000
- Drug concentration, time course ([1]; Kidney, 24h): 850
- Drug concentration, time course ([1]; Liver, 0h): 0
- Drug concentration, time course ([1]; Liver, 3h): 7500
- Drug concentration, time course ([1]; Liver, 6h): 6000
- Drug concentration, time course ([1]; Liver, 9h): 1200
- Drug concentration, time course ([1]; Liver, 12h): 300
- Drug concentration, time course ([1]; Liver, 15h): 50
- Drug concentration, time course ([1]; Liver, 18h): 0
- Drug concentration, time course ([1]; Liver, 21h): 0
- Drug concentration, time course ([1]; Liver, 24h): 0
- Drug concentration, time course ([1]; Plasma, 0h): 0
- Drug concentration, time course ([1]; Plasma, 3h): 300
- Drug concentration, time course ([1]; Plasma, 6h): 250
- Drug concentration, time course ([1]; Plasma, 9h): 30
- Drug concentration, time course ([1]; Plasma, 12h): 0
- Drug concentration, time course ([1]; Plasma, 15h): 0
- Drug concentration, time course ([1]; Plasma, 18h): 0
- Drug concentration, time course ([1]; Plasma, 21h): 0
- Drug concentration, time course ([1]; Plasma, 24h): 0
- Tmax [2]: 0.5 h
- Tmax ([2]; 3 mg/kg): 0.5 h
- Cmax ([2]; 3 mg/kg, oral gavage, Kidney): 4.13 µg/mL
- Cmax ([2]; 3 mg/kg, oral gavage, Liver): 3.04 µg/mL
- Cmax ([2]; 3 mg/kg, oral gavage, Plasma): 0.975 µg/mL
- half-life [2, 4]: 2.3 h
- half-life [2, 5]: 1.5 h
- half-life [2, 6]: 1.6 h
SMILES: OC[C@H]1O[C@@H](c2ccc(F)c(Cc3cc4ccccc4s3)c2)[C@H](O)[C@@H](O)[C@@H]1O [Ipragliflozin, ipragliflozin]
- Association with AKI, Unadjusted (95% CI) [3, 7]: 0.78 (0.61–1.08)
- Association with AKI, Adjusted (95% CI) [3, 7]: 0.86 (0.69–1.31)
- Association with AKI, Unadjusted (95% CI) [3, 8]: 0.84 (0.69–1.16)
- Association with AKI, Adjusted (95% CI) [3, 8]: 0.95 (0.62–1.45)
- Events During the 90 days (AKI) [3]: 58
- Total endpoint (AKI events) [3]: 269
- Events at secondary end (AKI) [3]: 211
- Total Percent (incidence rate of AKI at the end of the study) [3]: 5.42%

- Drug concentration, time course ([1]; Kidney, 0h): 0
- Drug concentration, time course ([1]; Kidney, 6h): 16,500
- Drug concentration, time course ([1]; Kidney, 9h): 9500
- Drug concentration, time course ([1]; Kidney, 12h): 3500
- Drug concentration, time course ([1]; Kidney, 15h): 1000
- Drug concentration, time course ([1]; Kidney, 18h): 200
- Drug concentration, time course ([1]; Kidney, 21h): 100
- Drug concentration, time course ([1]; Kidney, 24h): 0
- Drug concentration, time course ([1]; Liver, 0h): 0
- Drug concentration, time course ([1]; Liver, 3h): 9500
- Drug concentration, time course ([1]; Liver, 6h): 7600
- Drug concentration, time course ([1]; Liver, 9h): 1800
- Drug concentration, time course ([1]; Liver, 12h): 600
- Drug concentration, time course ([1]; Liver, 15h): 150
- Drug concentration, time course ([1]; Liver, 18h): 0
- Drug concentration, time course ([1]; Liver, 21h): 0
- Drug concentration, time course ([1]; Liver, 24h): 0
- Drug concentration, time course ([1]; Plasma, 0h): 0
- Drug concentration, time course ([1]; Plasma, 3h): 600
- Drug concentration, time course ([1]; Plasma, 6h): 400
- Drug concentration, time course ([1]; Plasma, 9h): 140
- Drug concentration, time course ([1]; Plasma, 12h): 0
- Drug concentration, time course ([1]; Plasma, 15h): 0
- Drug concentration, time course ([1]; Plasma, 18h): 0
- Drug concentration, time course ([1]; Plasma, 21h): 0
- Drug concentration, time course ([1]; Plasma, 24h): 0
- Tmax [2]: 1 h
- Tmax ([2]; 3 mg/kg): 1 h
SMILES: CC(C)Cc1ccc(C(C)C(=O)O)cc1 (stereo not shown) [Ibuprofen, ibuprofen]
- Association with AKI, Unadjusted (95% CI) [3, 7]: 3.14 (2.87–3.74)
- Association with AKI, Adjusted (95% CI) [3, 7]: 2.41 (1.91–2.54)
- Association with AKI, Unadjusted (95% CI) [3, 8]: 2.68 (2.21–3.03)
- Association with AKI, Adjusted (95% CI) [3, 8]: 2.36 (1.84–2.93)
- Association with AKI compared to control drug metformin, in words [3]: higher risk for AKI
- Association with AKI compared to control drug metformin, in words ([3]; listed as ibuprofen): increased rate of AKI
- Events During the 90 days (AKI) [3]: 124
- Events at secondary end (AKI) [3]: 433
- Total Percent (incidence rate of AKI at the end of the study) [3]: 11.22%

- Tmax determined from the drug concentration in kidney and plasma (and liver) ([1]; mouse, tissue not separated): 1 h
- Drug concentration, time course ([1]; Kidney, 0h): 0
- Drug concentration, time course ([1]; Kidney, 3h): 8240
- Drug concentration, time course ([1]; Kidney, 6h): 5200
- Drug concentration, time course ([1]; Kidney, 9h): 3880
- Drug concentration, time course ([1]; Kidney, 12h): 700
- Drug concentration, time course ([1]; Kidney, 15h): 250
- Drug concentration, time course ([1]; Kidney, 18h): 0
- Drug concentration, time course ([1]; Kidney, 21h): 0
- Drug concentration, time course ([1]; Kidney, 24h): 0
- Drug concentration, time course ([1]; Liver, 0h): 0
- Drug concentration, time course ([1]; Liver, 3h): 10,300
- Drug concentration, time course ([1]; Liver, 6h): 8700
- Drug concentration, time course ([1]; Liver, 9h): 5400
- Drug concentration, time course ([1]; Liver, 12h): 1200
- Drug concentration, time course ([1]; Liver, 15h): 150
- Drug concentration, time course ([1]; Liver, 18h): 0
- Drug concentration, time course ([1]; Liver, 21h): 0
- Drug concentration, time course ([1]; Liver, 24h): 0
- Drug concentration, time course ([1]; Plasma, 0h): 0
- Drug concentration, time course ([1]; Plasma, 3h): 300
- Drug concentration, time course ([1]; Plasma, 6h): 100
- Drug concentration, time course ([1]; Plasma, 9h): 50
- Drug concentration, time course ([1]; Plasma, 12h): 0
- Drug concentration, time course ([1]; Plasma, 15h): 0
- Drug concentration, time course ([1]; Plasma, 18h): 0
- Drug concentration, time course ([1]; Plasma, 21h): 0
- Drug concentration, time course ([1]; Plasma, 24h): 0
- Tmax ([2]; 3 mg/kg): 1 h
- Cmax ([2]; 3 mg/kg, oral gavage, Kidney): 10.3 µg/mL
- Cmax ([2]; 3 mg/kg, oral gavage, Liver): 9.65 µg/mL
- Cmax ([2]; 3 mg/kg, oral gavage, Plasma): 1.17 µg/mL
- half-life [2, 4]: 3.8 h
- half-life [2, 5]: 3.1 h
- half-life [2, 6]: 2.7 h
SMILES: COc1ccc2c(c1)c(CC(=O)O)c(C)n2C(=O)c1ccc(Cl)cc1 [Indomethacin, indomethacin]
- Association with AKI, Unadjusted (95% CI) [3, 7]: 2.81 (2.32–2.94)
- Association with AKI, Adjusted (95% CI) [3, 7]: 2.29 (2.05–2.65)
- Association with AKI, Unadjusted (95% CI) [3, 8]: 2.45(2.09–2.54)
- Association with AKI, Adjusted (95% CI) [3, 8]: 2.63 (2.41–2.72)
- Association with AKI compared to control drug metformin, in words [3]: increased rate of AKI; also recorded: higher risk for AKI
- Events During the 90 days (AKI) [3]: 106
- Total endpoint (AKI events) [3]: 497
- Events at secondary end (AKI) [3]: 391
- Total Percent (incidence rate of AKI at the end of the study) [3]: 10.01%

- Drug concentration, time course ([1]; Kidney, 0h): 0
- Drug concentration, time course ([1]; Kidney, 3h): 6700
- Drug concentration, time course ([1]; Kidney, 6h): 4300
- Drug concentration, time course ([1]; Kidney, 9h): 2350
- Drug concentration, time course ([1]; Kidney, 12h): 100
- Drug concentration, time course ([1]; Kidney, 15h): 50
- Drug concentration, time course ([1]; Kidney, 18h): 0
- Drug concentration, time course ([1]; Kidney, 21h): 0
- Drug concentration, time course ([1]; Kidney, 24h): 0
- Drug concentration, time course ([1]; Liver, 0h): 0
- Drug concentration, time course ([1]; Liver, 3h): 6340
- Drug concentration, time course ([1]; Liver, 6h): 3500
- Drug concentration, time course ([1]; Liver, 9h): 1980
- Drug concentration, time course ([1]; Liver, 12h): 300
- Drug concentration, time course ([1]; Liver, 15h): 100
- Drug concentration, time course ([1]; Liver, 18h): 0
- Drug concentration, time course ([1]; Liver, 21h): 0
- Drug concentration, time course ([1]; Liver, 24h): 0
- Drug concentration, time course ([1]; Plasma, 0h): 0
- Drug concentration, time course ([1]; Plasma, 3h): 400
- Drug concentration, time course ([1]; Plasma, 6h): 250
- Drug concentration, time course ([1]; Plasma, 9h): 50
- Drug concentration, time course ([1]; Plasma, 12h): 0
- Drug concentration, time course ([1]; Plasma, 15h): 0
- Drug concentration, time course ([1]; Plasma, 18h): 0
- Drug concentration, time course ([1]; Plasma, 21h): 0
- Drug concentration, time course ([1]; Plasma, 24h): 0
- Tmax [2]: 1 h
- Tmax ([2]; 3 mg/kg): 1 h
- Cmax ([2]; 3 mg/kg, oral gavage, Kidney): 8.56 µg/mL
- Cmax ([2]; 3 mg/kg, oral gavage, Liver): 6.73 µg/mL
- Cmax ([2]; 3 mg/kg, oral gavage, Plasma): 0.943 µg/mL
- half-life ([2]; 3 mg/kg, t1/2): 2.4 h
SMILES: Cn1c(=O)cc(N2CCC[C@@H](N)C2)n(Cc2ccccc2C#N)c1=O [Alogliptin, alogliptin]
- Association with AKI, Unadjusted (95% CI) [3, 7]: 1.83 (1.75–2.16)
- Association with AKI, Adjusted (95% CI) [3, 7]: 1.43 (1.31–2.04)
- Association with AKI, Unadjusted (95% CI) [3, 8]: 2.27 (1.08–3.12)
- Association with AKI, Adjusted (95% CI) [3, 8]: 2.85 (2.26–3.07)
- Association with AKI compared to control drug metformin, in words [3]: increased rate of AKI
- Events During the 90 days (AKI) [3]: 91
- Total endpoint (AKI events) [3]: 364
- Events at secondary end (AKI) [3]: 273
- Total Percent (incidence rate of AKI at the end of the study) [3]: 7.33%
